Patent publication US20090118276A1, “THIENOPYRIMIDINES, THIENOPYRIDINES, AND PYRROLOPYRIMIDINES AS B-RAF INHIBITORS” (priority 2007, published 2009)

Molecular target: T1, Flag/GST-tagged recombinant human B-Raf (Homo sapiens, UniProt P15056)
T1 construct: Flag; GST; made in house; host or cells: Sf9 insect cells (B-Raf); E. coli (MEK1-GST)
Test: B-Raf Kinase to MEK1 ELISA
Assay type: biochemical
Experimental: B-Raf Kinase to MEK1 ELISA
B-Raf1 Kinase Assay Procedure: B-Raf-1 is used to phosphorylate GST-MEK1.
B-Raf Assay Stock Solutions:
1. Assay Dilution Buffer (ADB): 20 mM MOPS, pH 7.2, 25 mM β-glycerol phosphate, 5 mM EGTA, 1 mM sodium orthovanadate, 1 mM dithiothreitol, 0.01% Triton X-100.
2. Magnesium/ATP Cocktail: ADB solution (minus Triton X-100) plus 200 μM cold ATP and 40 mM magnesium chloride.
4. Active Kinase: Active B-Raf: used at 0.2 nM per assay point.
8. Anti pMEK Ab (Upstate)
9. Anti-rabbit Ab/Europium conjugate (Wallac)
1. Add 25 μl of ADB containing B-Raf and Mek per assay (i.e. per well of a 96 well plate)
2. Add 25 μl of 0.2 mM ATP and 40 mM magnesium chloride in Magnesium/ATP Cocktail.
3. Incubate for 45 minutes at RT with occasional shaking.
4. Transfer this mixture to an anti-GST Ab coated 96 well plate (Nunc Immunosorb plates coated o/n with a-GST. Plate freshly washed 3× with TBS-T before use.
5. Incubate o/n at 30° C. in cold room.
6. Wash 3× with TBST, add Anti-Phospho MEK1 (1:1000, dilution depends upon lot)
7. Incubate for 60 minutes at RT in a shaking incubator
8. Wash 3× with TBST, add Anti-rabbit Ab/Europium conjugate (Wallac) (1:500, dilution depends upon lot)
9. Incubate for 60 minutes at RT on a platform shaker.
10. Wash plate 3× with TBS-T
11. Add 100 μl of Wallac Delfia Enhancement Solution and shake for 10 minutes.
12. Read plates in Wallac Victor model Plate Reader.
13. Collect data analyze in Excel for single point and IC50 determinations.
The % inhibition was determined for each compound concentration.

T1 sequence (P15056 whole entry): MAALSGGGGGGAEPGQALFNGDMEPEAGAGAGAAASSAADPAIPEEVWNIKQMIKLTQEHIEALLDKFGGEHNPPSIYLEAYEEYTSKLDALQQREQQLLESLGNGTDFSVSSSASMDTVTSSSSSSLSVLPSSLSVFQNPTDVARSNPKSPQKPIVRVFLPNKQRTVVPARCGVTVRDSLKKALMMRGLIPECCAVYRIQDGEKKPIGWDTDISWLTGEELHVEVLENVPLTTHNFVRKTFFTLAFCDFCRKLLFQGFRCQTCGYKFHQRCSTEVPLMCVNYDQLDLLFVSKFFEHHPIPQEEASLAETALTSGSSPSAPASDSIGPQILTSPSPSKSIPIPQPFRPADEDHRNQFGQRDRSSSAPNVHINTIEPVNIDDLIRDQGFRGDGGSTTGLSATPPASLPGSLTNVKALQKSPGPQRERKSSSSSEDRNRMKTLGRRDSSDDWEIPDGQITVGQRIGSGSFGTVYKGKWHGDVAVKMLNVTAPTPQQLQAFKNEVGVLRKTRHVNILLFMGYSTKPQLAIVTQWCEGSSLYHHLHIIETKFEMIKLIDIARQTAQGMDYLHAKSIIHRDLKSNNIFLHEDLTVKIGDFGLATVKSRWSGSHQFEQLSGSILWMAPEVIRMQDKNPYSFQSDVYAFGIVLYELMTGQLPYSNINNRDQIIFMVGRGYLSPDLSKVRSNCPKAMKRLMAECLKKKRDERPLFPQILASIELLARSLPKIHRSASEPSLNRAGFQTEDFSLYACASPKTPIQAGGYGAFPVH

IC50	SMILES
6570 nM	CN(C)c1ccc(-n2ccc3c(-c4cccc(NC(=O)c5cccc(C(F)(F)F)c5)c4)ncnc32)cc1 [Compound 107, N-(3-{7-[4-(dimethylamino)phenyl]-7H-pyrrolo[2,3-d]pyrimidin-4-yl}phenyl)-3-(trifluoromethyl)benzamide]
68.5 nM	O=C(Nc1cccc(-c2ncnc3c2cc(-c2ccncc2)n3CCN2CCCC2)c1)c1cccc(C(F)(F)F)c1 [Compound 108, N-{3-[6-pyridin-4-yl-7-(2-pyrrolidin-1-ylethyl)-7H-pyrrolo[2,3-d]pyrimidin-4-yl]phenyl}-3-(trifluoromethyl)benzamide]
66.5 nM	CN(C)CCCn1c(-c2ccncc2)cc2c(-c3cccc(NC(=O)c4cccc(C(F)(F)F)c4)c3)ncnc21 [Compound 109, N-(3-{7-[3-(dimethylamino)propyl]-6-pyridin-4-yl-7H-pyrrolo[2,3-d]pyrimidin-4-yl}phenyl)-3-(trifluoromethyl)benzamide]
432 nM	CN(C)Cc1ccc(-n2ccc3c(-c4cccc(NC(=O)c5cccc(C(F)(F)F)c5)c4)ncnc32)cc1 [Compound 111, N-[3-(7-{4-[(dimethylamino)methyl]phenyl}-7H-pyrrolo[2,3-d]pyrimidin-4-yl)phenyl]-3-(trifluoromethyl)benzamide]
191 nM	O=C(Nc1cccc(-c2ncnc3c2ccn3-c2ccc(CN3CCNCC3)cc2)c1)c1cccc(C(F)(F)F)c1 [Compound 112, N-(3-{7-[4-(piperazin-1-ylmethyl)phenyl]-7H-pyrrolo[2,3-d]pyrimidin-4-yl}phenyl)-3-(trifluoromethyl)benzamide]
